From US12178825B2, “Method and compositions for forming a copper-containing complex and uses thereof” (COLD SPRING HARBOR LABORATORY, priority 2017, dated 2024)
Entries after “also recorded” stand apart in the source; their conditions may differ.

What was measured:
[1] = ESI-MS analysis of complex formation with zinc salts; format: binding; conditions: ZnSO4 or Zn(NO3)2, ESI-MS
Description: Eight equivalents of M(NO3)2·xH2O or MSO4·xH2O (M=Cu, Zn) were reacted with 1 eq. of DPM-1001 (1 mM in H2O). The reaction solutions were stirred at RT, 40° C. and 80° C. for 2 h. Mass spectra were recorded on a Bruker Esquire 6000 HCT quadrupole ion trap instrument (Bruker Daltonik GmbH, Leipzig, Germany), equipped with an electrospray ionization (ESI) source. Generation of the molecular formula of the DPM-1001/Cu(II) species and the comparison between the theoretical (simulated) and the measured isotopic patterns was performed using the DataAnalysis 4.0 software (Bruker).

[2] = test system: insulin receptor β subunit, AKT; experiment: Insulin signaling in liver of treated mice; format: in vivo
Description: The antibodies used in the study were purchased from: Upstate Biotechnology (pTyr, catalog 05-321, clone 4G10); Invitrogen (pY1162/1163-IR-β, catalog 700393, clone 97H9L7); Santa Cruz Biotechnology Inc. (IR-β, catalog sc-711, clone C711); Cell Signaling
Technology (JAK2, catalog 3230, clone D2E12; p-T308 AKT (catalog 13038, clone D25E6); AKT (catalog 4691, clone C67E7) and Sigma-Aldrich (actin, catalog A2228, clone AC-74).
All protocols were approved by the Institutional Animal Use and Care Committee of Cold Spring Harbor laboratory. 10 week-old male mice fed chow diet or high-fat diet (D12492) were acclimatized for 10 days under standard conditions before experiments. Mice were injected intraperitoneally (i.p.) once daily with vehicle, 5 mg/kg of DPM-1001 intraperitoneally or orally for 50 days. Mice were euthanized after 6 h of fasting, and serum samples were collected to measure the metabolic parameters and tissue samples were collected for studying changes in signaling.

[3] = test system: ATP7B-knockdown HepG2 cells; experiment: Copper-induced toxicity, MTT cell survival; format: cell-based; conditions: DPM-1001 2 μM; ATP7B-knockdown HepG2
Description: HepG2 cells purchased from ATCC were cultured in RPMI media containing 10% FBS, 5% CO2 at 37 C. Control (AG09319) and Wilson's disease patient-derived fibroblasts (GM00032, GM00033, GM05257, GM12158, GM05798 and GM11778) were obtained from Coriell Biorepository and cultured in DMEM, 10% FBS, 5% CO2 at 37° C.
For cell survival assays, 10,000 cells were seeded in a 96 well plate and cultured until fully confluent (90%). To these cells, ATP7B siRNAs or scrambled siRNA (negative control) purchased from Qiagen and Santa Cruz Biotechnology were transfected. Lipofectamine RNAiMAX reagent (Thermofischer) and siRNAs were diluted into a final volume of 100 μl in Opti-MEM (Gibco). The mixture was incubated at room temperature for 30 min, following which 800 μl of Opti-MEM was added to the mixture. The above transfection solution was overlaid onto cells at a final concentration of 5 nM siRNA. Transfection of HepG2 cells with scrambled siRNA served as negative control. Twelve hours after the transfection, complete media was added to each well. Following which, knockdown efficiency was checked (24 hours later) and cells were exposed to varying concentration of copper (0-1 mM) for 12 h and cell viability was determined using the MTT assay as previously described (37). […]

[4] = test system: metallothionein; experiment: Metallothionein quantitation in liver and brain; format: in vivo, mouse; conditions: TX mice
Description: Tissue samples (100 mg liver or 25 mg brain) were rinsed in PBS to remove excess blood and homogenized using a dounce homogenizer on ice (PBS, 1% tween). The samples were centrifuged at 5000×g for 5 minutes and the supernatant was collected. Total protein in the supernatant was measured using Bradford reagent and an equal amount of each sample (based on protein concentration) was used to measure metallothionein levels. Mouse metallothionein Elisa kit was purchased from Lifespan Biosciences, Inc and the assay was performed according to the users manual.

[5] = test system: TNBC cells; experiment: Annexin V and propidium iodide staining; format: cell-based
Description: Cells (1×10^5) were plated in six-well plates in growth medium. The cells were untreated or treated with DPM-1001 (2 μM). Following which, cells were washed with cold PBS twice and resuspended in 0.1 M Hepes/NaOH (pH 7.4), 1.4 M NaCl, 25 mM CaCl2). To the cell suspension 5 μl of fluorescein isothiocynate (FITC)-conjugated annexin V (0.1 mg/ml) and propidium iodide (1 mg/ml) were added and the samples were incubated in dark for 30 minutes at room temperature. The samples were analyzed by flow cytometry (Becton Dickinson LSRII Cell Analyzer).

[6] = molecular target: T1, PTP1B1-394 (Homo sapiens, UniProt P18031); experiment: Gel filtration for aggregation of PTP1B; conditions: gel filtration elution profile
T1 construct: elution profile of PTP1B1-394 in the absence (circles) and presence (triangles) of DPM-1001; His-tag; made in house; host or cells: Escherichia coli BL21 (DE3)-RIL
T1 sequence (P18031 1-394): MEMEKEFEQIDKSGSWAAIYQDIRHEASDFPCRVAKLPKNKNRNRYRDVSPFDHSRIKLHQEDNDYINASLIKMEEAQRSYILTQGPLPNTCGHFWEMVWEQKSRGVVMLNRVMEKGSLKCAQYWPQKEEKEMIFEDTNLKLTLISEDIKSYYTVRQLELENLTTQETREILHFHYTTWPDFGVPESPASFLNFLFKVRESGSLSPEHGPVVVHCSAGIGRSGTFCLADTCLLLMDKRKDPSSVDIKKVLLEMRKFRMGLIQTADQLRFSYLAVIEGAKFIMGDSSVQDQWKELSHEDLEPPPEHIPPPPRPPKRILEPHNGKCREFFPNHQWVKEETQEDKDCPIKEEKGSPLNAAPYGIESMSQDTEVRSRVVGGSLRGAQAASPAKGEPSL
Description: PTP1B (5 μM) was incubated with 10 μM MSI1436 in a final volume of 200 μl buffer (50 mM HEPES, pH 7.0, 100 mM NaCl, 0.2 mM EDTA, 2 mM DTT) at 4° C. The reaction mixture was then subjected to gel filtration on a Superdex 200 column (HR30/10; Pharmacia Biotech Inc.). Prior to loading the MSI1436-saturated protein sample, the column was equilibrated with 50 mM HEPES, pH 7.0, 100 mM NaCl, 0.2 mM EDTA and 2 mM DTT. The void volume (Vo) and total volume (Vt) were measured using blue dextran and Coomassie blue dye, respectively. Fractions of 0.5 ml were collected, and the protein concentration in each sample was determined by Bradford assay or by recording the UV absorption spectrum at 280 nm.

COC(=O)CCC(C)C1CCC2C3C(O)CC4CC(NCCCCNCc5ccccn5)CCC4(C)C3CCC12C (stereo not shown) [DPM-1001]
complexation with Zn(II) [1]: no complexation
AKT phosphorylation [2]: phosphorylation of AKT; also recorded: enhanced AKT phosphorylation
tyrosine phosphorylation of insulin receptor β subunit ([2]; insulin-stimulated, orally or intraperitoneally): increased insulin-stimulated insulin receptor phosphorylation; also recorded: marked increase in β-subunit phosphorylation
protection from copper-induced cell death [3]: able to rescue cells from copper-induced cell death
metallothionein levels [4]: prevents elevated metallothionein expression in liver; also recorded: lowered metallothionein levels in the liver and the brain
mechanism of reduced cell survival [5]: due to promoting death of these cells
aggregation of PTP1B [6]: did not induce aggregation
